Values of other authors in PMC13015236 (Journal of Pharmaceutical Analysis, 2025).

What was measured:
[1] = patients
[2] = system: non-small cell lung cancer (NSCLC); details: NSCLC patients

Row | Substance | objective response rate (ORR) [1] [%] | objective response rate (ORR) [2] [%]
1 | tiragolumab | 21 | –
2 | atezolizumab | 24 | 16.2
